In this experiment the target is FXR (Homo sapiens (Human), UniProt Q96RI1). Put plainly: FXR EC50 (FXR agonist activity reported with each example). It is filed as cell-based.
FXR, sequence (Q96RI1 262-486): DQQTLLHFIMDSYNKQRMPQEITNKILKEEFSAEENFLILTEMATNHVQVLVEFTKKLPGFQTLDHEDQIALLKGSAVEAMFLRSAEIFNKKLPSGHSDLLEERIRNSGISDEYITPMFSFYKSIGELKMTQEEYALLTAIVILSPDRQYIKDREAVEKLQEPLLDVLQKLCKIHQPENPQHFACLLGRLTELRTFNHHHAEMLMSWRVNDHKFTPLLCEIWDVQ
Compound `COc1cncc(Cl)c1-c1noc(C2CC2)c1COC12CCC(COc3ccc4cc(C(=O)O)cc(C5CC5)c4n3)(CC1)CC2` [Example 351, 2-((4-((3-(3-chloro-5-methoxypyridin-4-yl)-5-cyclopropylisoxazol-4-yl)methoxy)bicyclo[2.2.2]octan-1-yl)methoxy)-8-cyclopropylquinoline-6-carboxylic acid] registered an EC50 of 23 nM.
The compound `O=C(O)c1cccc2cc(OCC34CCC(OCc5c(-c6c(Cl)cncc6Cl)noc5C5CC5)(CC3)CC4)cnc12` [Example 352, 3-((4-((5-cyclopropyl-3-(3,5-dichloropyridin-4-yl)isoxazol-4-yl)methoxy)bicyclo[2.2.2]octan-1-yl)methoxy)quinoline-8-carboxylic acid] gave a 50% effective concentration (EC50) of 55 nM.
The same measure for `O=C(O)c1cc(OCC2CCC2)c2cc(OCC34CCC(OCc5c(-c6c(Cl)cncc6Cl)noc5C5CC5)(CC3)CC4)ccc2n1` [Example 353]: 11 nM; for `O=C(O)c1cc(OC(CO)CCl)c2cc(OCC34CCC(OCc5c(-c6c(Cl)cncc6Cl)noc5C5CC5)(CC3)CC4)ccc2n1` (centres unmarked) [Example 354, 4-((1-chloro-3-hydroxypropan-2-yl)oxy)-6-((4-((5-cyclopropyl-3-(3,5-dichloropyridin-4-yl)isoxazol-4-yl)methoxy)bicyclo[2.2.2]octan-1-yl)methoxy)quinoline-2-carboxylic acid]: 200 nM; for `CC(C)COc1cc(C(=O)O)nc2ccc(OCC34CCC(OCc5c(-c6c(Cl)cncc6Cl)noc5C5CC5)(CC3)CC4)cc12` [Example 355]: 18 nM.
Then `O=C(O)c1cc(OCC(CO)CCl)c2cc(OCC34CCC(OCc5c(-c6c(Cl)cncc6Cl)noc5C5CC5)(CC3)CC4)ccc2n1` (centres unmarked) [Example 356], with 110 nM; and `CC(C)Oc1nc(C(=O)O)cc2ccc(OCC34CCC(OCc5c(-c6c(Cl)cncc6Cl)noc5C5CC5)(CC3)CC4)cc12` [Example 357, 7-((4-((5-cyclopropyl-3-(3,5-dichloropyridin-4-yl)isoxazol-4-yl)methoxy)bicyclo[2.2.2]octan-1-yl)methoxy)-1-isopropoxyisoquinoline-3-carboxylic acid], with 13 nM; and `COc1cc(OCC23CCC(OCc4c(-c5c(Cl)cncc5Cl)noc4C4CC4)(CC2)CC3)ccc1C(=O)O` [Example 358], with 52 nM.
Compound `O=C(O)c1cc(OCC2COC2)c2cc(OCC34CCC(OCc5c(-c6c(Cl)cncc6Cl)noc5C5CC5)(CC3)CC4)ccc2n1` [Example 360] returned an EC50 of 140 nM.
The same measure for `O=C(O)c1cc(OC2COC2)c2cc(OCC34CCC(OCc5c(-c6c(Cl)cncc6Cl)noc5C5CC5)(CC3)CC4)ccc2n1` [Example 361]: 71 nM; for `O=C(O)c1ccc2c(c1)CN(CC13CCC(OCc4c(-c5c(Cl)cccc5Cl)noc4C4CC4)(CC1)CC3)CC2` [Example 362, 2-((4-((5-cyclopropyl-3-(2,6-dichlorophenyl)isoxazol-4-yl)methoxy)bicyclo[2.2.2]octan-1-yl)methyl)-1,2,3,4-tetrahydroisoquinoline-7-carboxylic acid]: 170 nM; for `Cn1cc(C(=O)O)c2ccc(C#CC34CCC(OCc5c(-c6c(Cl)cncc6Cl)noc5C5CC5)(CC3)CC4)nc21` [Example 363]: 260 nM.
Then `O=C(O)c1cc(C(F)(F)F)c2cc(C#CC34CCC(OCc5c(-c6c(Cl)cncc6Cl)noc5C5CC5)(CC3)CC4)ccc2n1` [Example 364], with 42 nM.
In turn, `Cn1nc(C(=O)O)c2ccc(C34CCC(OCc5c(-c6c(Cl)cncc6Cl)noc5C5CC5)(CC3)CC4)nc21` [Example 365] came in with an EC50 of 49 nM.
Then `O=C(O)c1cc(C#CC23CCC(OCc4c(-c5c(Cl)cncc5Cl)noc4C4CC4)(CC2)CC3)cc(C(F)(F)F)c1` [Example 366], with 27 nM; and `COc1ccc(C#CC23CCC(OCc4c(-c5c(Cl)cncc5Cl)noc4C4CC4)(CC2)CC3)cc1C(=O)O` [Example 367], with 91 nM.
Then `O=C(O)c1cccc2nc(C34CCC(OCc5c(-c6c(Cl)cncc6Cl)noc5C5CC5)(CC3)CC4)ccc12` [Example 368], with 36 nM; and `O=C(O)c1cc(F)c2nc(C34CCC(OCc5c(-c6c(Cl)cncc6Cl)noc5C5CC5)(CC3)CC4)ccc2c1` [Example 369], with 41 nM; and `O=C(O)c1cc(C(F)(F)F)c2nc(C34CCC(OCc5c(-c6c(Cl)cncc6Cl)noc5C5CC5)(CC3)CC4)ccc2c1` [Example 370], with 56 nM.
Then `COc1ccc(C(=O)O)c2ccc(C34CCC(OCc5c(-c6c(Cl)cncc6Cl)noc5C5CC5)(CC3)CC4)nc12` [Example 371], with 18 nM.
Regarding `O=C(O)c1cc(C(F)(F)F)c2nccc(C34CCC(OCc5c(-c6c(Cl)cncc6Cl)noc5C5CC5)(CC3)CC4)c2c1` [Example 372], the EC50 was 570 nM.
The same measure for `O=C(O)c1cc(C(F)(F)F)cc(C#CC23CCC(OCc4c(-c5c(Cl)cncc5Cl)noc4C4CC4)(CC2)CC3)n1` [Example 373]: 460 nM.
The same measure for `O=C(O)c1cnc(C#CC23CCC(OCc4c(-c5c(Cl)cncc5Cl)noc4C4CC4)(CC2)CC3)cc1C(F)(F)F` [Example 374]: 130 nM; for `COc1cc(C(=O)O)nc2ccc(C#CC34CCC(OCc5c(-c6c(Cl)cncc6Cl)noc5C5CC5)(CC3)CC4)cc12` [Example 375]: 57 nM.
Then `O=C(O)c1cc(OC(F)F)c2cc(C#CC34CCC(OCc5c(-c6c(Cl)cncc6Cl)noc5C5CC5)(CC3)CC4)ccc2n1` [Example 376], with 27 nM; and `COc1cc(C#CC23CCC(OCc4c(-c5c(Cl)cncc5Cl)noc4C4CC4)(CC2)CC3)nc(C(=O)O)c1` [Example 377], with 390 nM; and `O=C(O)c1cc(C#CC23CCC(OCc4c(-c5c(Cl)cncc5Cl)noc4C4CC4)(CC2)CC3)cc(OC(F)(F)F)c1` [Example 378], with 130 nM.
Take `O=C(O)c1cnc(C#CC23CCC(OCc4c(-c5c(Cl)cncc5Cl)noc4C4CC4)(CC2)CC3)c(F)c1` [Example 379]: the EC50 amounted to 240 nM.
Then `COc1cc(C#CC23CCC(OCc4c(-c5c(Cl)cncc5Cl)noc4C4CC4)(CC2)CC3)cc(C(=O)O)c1` [Example 380], with 24 nM; and `COc1c(C#CC23CCC(OCc4c(-c5c(Cl)cncc5Cl)noc4C4CC4)(CC2)CC3)cccc1C(=O)O` [Example 381], with 220 nM.
In the case of `O=C(O)c1ccc2cc(C#CC34CCC(OCc5c(-c6c(Cl)cncc6Cl)noc5C5CC5)(CC3)CC4)ccc2n1` [Example 382], the EC50 was 62 nM.
Regarding `COc1c(C#CC23CCC(OCc4c(-c5c(Cl)cncc5Cl)noc4C4CC4)(CC2)CC3)cccc1C(=O)O` [Example 383], the midpoint of the response, the EC50, lay at 820 nM.
The compound `N#Cc1ccc(C(=O)O)c2ccc(C34CCC(OCc5c(-c6c(Cl)cncc6Cl)noc5C5CC5)(CC3)CC4)nc12` [Example 384, 8-cyano-2-(4-((5-cyclopropyl-3-(3,5-dichloropyridin-4-yl)isoxazol-4-yl)methoxy)bicyclo[2.2.2]octan-1-yl)quinoline-5-carboxylic acid] showed an EC50 of 820 nM.
The same measure for `O=C(O)c1ccc(C2CC2)c2nc(C34CCC(OCc5c(-c6c(Cl)cncc6Cl)noc5C5CC5)(CC3)CC4)ccc12` [Example 385, 8-cyclopropyl-2-(4-((5-cyclopropyl-3-(3,5-dichloropyridin-4-yl)isoxazol-4-yl)methoxy)bicyclo[2.2.2]octan-1-yl)quinoline-5-carboxylic acid]: 13 nM.
Then `COCc1cc(C#CC23CCC(OCc4c(-c5c(Cl)cncc5Cl)noc4C4CC4)(CC2)CC3)cc(C(=O)O)c1` [Example 386], with 31 nM; and `Cc1cc(C(=O)O)ncc1C#CC12CCC(OCc3c(-c4c(Cl)cncc4Cl)noc3C3CC3)(CC1)CC2` [Example 387], with 57 nM; and `Cc1cc(C#CC23CCC(OCc4c(-c5c(Cl)cncc5Cl)noc4C4CC4)(CC2)CC3)cnc1C(=O)O` [Example 388], with 55 nM.
`Cc1ccc(C(=O)O)c2ccc(C34CCC(OCc5c(-c6c(Cl)cncc6Cl)noc5C5CC5)(CC3)CC4)nc12` [Example 389]: a half-maximal response (EC50) required 6 nM.
Then `CC(C)Oc1cc(C(=O)O)nc2ccc(C#CC34CCC(OCc5c(-c6c(Cl)cncc6Cl)noc5C5CC5)(CC3)CC4)cc12` [Example 390], with 20 nM; and `CC(C)Oc1ccc(C(=O)O)c2ccc(C34CCC(OCc5c(-c6c(Cl)cncc6Cl)noc5C5CC5)(CC3)CC4)nc12` [Example 391, 2-(4-((5-cyclopropyl-3-(3,5-dichloropyridin-4-yl)isoxazol-4-yl)methoxy)bicyclo[2.2.2]octan-1-yl)-8-isopropoxyquinoline-5-carboxylic acid], with 14 nM.
In the case of `O=C(O)c1ccc(OCC2CC2)c2nc(C34CCC(OCc5c(-c6c(Cl)cncc6Cl)noc5C5CC5)(CC3)CC4)ccc12` [Example 392], the 50% effective concentration (EC50) worked out at 24 nM.
Then `O=C(O)c1ccn2c(C#CC34CCC(OCc5c(-c6c(Cl)cncc6Cl)noc5C5CC5)(CC3)CC4)cnc2c1` [Example 393], with 270 nM; and `O=C(O)c1cn2ccc(C#CC34CCC(OCc5c(-c6c(Cl)cncc6Cl)noc5C5CC5)(CC3)CC4)cc2n1` [Example 394], with 180 nM.
As to `O=C(O)c1cnn2ccc(C#CC34CCC(OCc5c(-c6c(Cl)cncc6Cl)noc5C5CC5)(CC3)CC4)cc12` [Example 395], a half-maximal effect (EC50) was put at 120 nM.
Then `O=C(O)c1cccn2c(C#CC34CCC(OCc5c(-c6c(Cl)cncc6Cl)noc5C5CC5)(CC3)CC4)cnc12` [Example 397], with 48 nM; and `O=C(O)c1ccc(C(F)(F)F)c2nc(C34CCC(OCc5c(-c6c(Cl)cncc6Cl)noc5C5CC5)(CC3)CC4)ccc12` [Example 398], with 30 nM.
The same measure for `Cn1cc(C#CC23CCC(OCc4c(-c5c(Cl)cncc5Cl)noc4C4CC4)(CC2)CC3)c2ccc(C(=O)O)cc21` [Example 399]: 83 nM.
Compound `CC(C)Oc1cc(C#CC23CCC(OCc4c(-c5c(Cl)cncc5Cl)noc4C4CC4)(CC2)CC3)cc(C(=O)O)c1` [Example 400] displayed an EC50 of 29 nM.
The same measure for `O=C(O)c1cc(C#CC23CCC(OCc4c(-c5c(Cl)cncc5Cl)noc4C4CC4)(CC2)CC3)cc2cn[nH]c12` [Example 401]: 74 nM; for `O=C(O)c1cc(OC2CCC2)c2cc(C#CC34CCC(OCc5c(-c6c(Cl)cncc6Cl)noc5C5CC5)(CC3)CC4)ccc2n1` [Example 402]: 52 nM.

As usually defined, the EC50 is the concentration giving half of the maximal effect.
